From paper PMC11123692, “Sugar-Based Surfactants: Effects of Structural Features on the Physicochemical Properties of Sugar Esters and Their Comparison to Commercial Octyl Glycosides” (Molecules, 2024)
Values after ≈ are worked out from the molar mass of the structure shown. Values joined by “and” are separate entries in the source; they are usually repeats but may differ in a detail not shown here. Equal entries are not always repeated. Where two headings read alike, the source gives them in different places.

Experiments:
[1] = Water solubility limit by visual examination (transparent/turbid); format: physicochemical; conditions: for solubility: thermodynamic from solid, read-out: Solubility Limit (S/mM)
Excerpt: Water solubility reflects the ability of a particular molecule to dissolve and its interaction with water. To characterize the water solubility of most amphiphile molecules, especially the ionic surfactants, the Krafft point (Tk) is often used, referring to the critical temperature above which micelles form or the melting point of the hydrated solid surfactant. Two general approaches were used to measure the Tks of the molecules investigated herein: (1) a visual examination of the dissolution phenomenon for binary molecule/water systems, and (2) a quantitative measurement by using differential scanning calorimetry (DSC) analysis. The visual observation procedure is detailed below. […] Consequently, molecules can be classified into two major types: those soluble in water at RT and others insoluble at RT, with the solubility limit being called S (expressed in mM). The aspect of the sample, either transparent or turbid, is determined by direct visual examination. Tk determination with DSC is particularly applicable in the case of molecules insoluble at RT, for which a concentrated binary molecule/water mixture with a mass fraction of 20% of each molecule (C >> CMC in most cases) was prepared at 65 °C under stirring for 30 min to obtain a homogeneous system. These pre-homogenized aqueous systems were cooled and conserved in a refrigerator at 4 °C for a suitable period (>7 days), during which equilibrated hydrated crystals formed and precipitated. Then, for each molecule, about a 200–400 mg crystal sample was taken and put into the calorimeter cell. The first equilibrium phase was programmed at 4 °C for 1 h, followed by a slow heating stage from 4 °C to 65 °C at a rate of 0.5 °C/min. Tk was determined based on the location of the endothermic peak on the DSC curve, if any. All agitations were performed using a standard magnetic hotplate stirrer, MR 3001K (Heidolph Instruments, Schwabach, Germany). DSC curves were obtained from a commercial µDSC7 evo calorimeter (SETARAM Instrumentation, Caluire-et-Cuire, France). Tks are reported as the averages of at least two measurements as well as their standard deviations.

[2] = set-up: method as in doi:10.1039/C4MD00122B; conditions: ITC at 25 °C; cited from earlier work
[3] = Equilibrium surface tension, Wilhelmy plate method (CMC, γcmc, Amin and derived quantities); format: physicochemical; conditions: for Amin: from Gibbs adsorption equation
Description: CMCs are determined from the inflections in the plots of equilibrium surface tension against the logarithm of the concentration. For the interested reader, the Gibbs-free energy of micellization, ΔGmic, the Gibbs-free energy of adsorption, ΔGads, and the efficiency of surfactant adsorption pC20 were calculated based on their definitions, as presented in Table 2.
The surface activity reflects the amphiphiles’ adsorption behavior on the air–aqueous solution interface. The surface tension (γ) was obtained using the Wilhelmy plate method with a K100 Processor Tensiometer (KRUSS, Hamburg, Germany). Both the critical micellar concentration (CMC) and equilibrium surface tension at the CMC (γcmc) were derived from the typical plot of surface tension (γ) against the logarithm of concentration (Log C). The surface excess (Γmax) and minimal area per molecule at the air–aqueous solution interface (Amin) at different temperatures were calculated from the Gibbs adsorption equation [3, 46]:(2) Γmax=−1/2.303RT(dγ/dlogc) and (3) Amin=10^20/NAΓmax where R is the ideal gas constant, 8.31 J∙mol^−1∙K^−1; T is the measuring temperature, K; γ is the surface tension, N/m; c is the concentration, mol.L^−1; Amin is the minimal area per molecule, Å^2, and NA is Avogadro’s number, 6.022·10^23 mol^−1.
For each molecule, several solutions of a wide range of concentrations were prepared. Before measuring, each solution was finely homogenized with the help of a magnetic stirring bar. The stirring time was fixed at 30 min in all cases. […] Then, measurements were performed once for each concentration, at the solution preparation’s temperature, with an uncertainty of ±1 °C.

[4] = Krafft temperature (Tk) by visual examination and DSC of molecule/water systems; format: physicochemical; conditions: in water; observation and DSC; average ± SD of at least two measurements
Excerpt: Water solubility reflects the ability of a particular molecule to dissolve and its interaction with water. To characterize the water solubility of most amphiphile molecules, especially the ionic surfactants, the Krafft point (Tk) is often used, referring to the critical temperature above which micelles form or the melting point of the hydrated solid surfactant. Two general approaches were used to measure the Tks of the molecules investigated herein: (1) a visual examination of the dissolution phenomenon for binary molecule/water systems, and (2) a quantitative measurement by using differential scanning calorimetry (DSC) analysis. The visual observation procedure is detailed below. We start with adding the molecule into 5–50 mL water, in a concentration range between 10^−2 mM and 10^3 mM (corresponding to a range of a surfactant mass concentration well below 20%), keeping the suspension under stirring for a certain time at room temperature (RT). Consequently, molecules can be classified into two major types: those soluble in water at RT and others insoluble at RT, with the solubility limit being called S (expressed in mM). The aspect of the sample, either transparent or turbid, is determined by direct visual examination. Tk determination with DSC is particularly applicable in the case of molecules insoluble at RT, for which a concentrated binary molecule/water mixture with a mass fraction of 20% of each molecule (C >> CMC in most cases) was prepared at 65 °C under stirring for 30 min to obtain a homogeneous system. These pre-homogenized aqueous systems were cooled and conserved in a refrigerator at 4 °C for a suitable period (>7 days), during which equilibrated hydrated crystals formed and precipitated. Then, for each molecule, about a 200–400 mg crystal sample was taken and put into the calorimeter cell. The first equilibrium phase was programmed at 4 °C for 1 h, followed by a slow heating stage from 4 °C to 65 °C at a rate of 0.5 °C/min. Tk was determined based on the location of the endothermic peak on the DSC curve, if any. All agitations were performed using a standard magnetic hotplate stirrer, MR 3001K (Heidolph Instruments, Schwabach, Germany). DSC curves were obtained from a commercial µDSC7 evo calorimeter (SETARAM Instrumentation, Caluire-et-Cuire, France). Tks are reported as the averages of at least two measurements as well as their standard deviations.

[5] = Precipitation on cooling previously heated 50 mM aqueous solutions; format: physicochemical; conditions: 50 mM in water
Description: For commercial alkyl glucosides, the Tk decreases in the following sequence: C8αGlc > C8βGal >> C8βGlc ≈ C8αGal. […] The obtained Tk for C8αGlc is around 40 °C in accordance with previously published values. However, as determined by the same experimental protocol, the Tk for C8βGal is about 29 °C, much lower than 42 °C derived from the phase diagram reported by Sakya et al. A possible explanation is that Sakya et al. synthesized and purified C8βGal by themselves, whereas we carried our measurements on commercially purchased C8βGal. […] For this reason, we assume that many researchers have been able to investigate their aqueous solutions at 25 °C, as mentioned in the introduction. In addition, when cooling the previously heated solutions with the same molecular concentration of 50 mM, we noted that C8αGlc precipitated much faster than C8βGal. […] This may, to some extent, be explained by a more favorable crystal structure for C8αGlc than C8βGal. With regard to C8αGal, which is presented in commercial samples as a highly viscous liquid, we expect it to have the weakest crystal structure and a very low Tk value. However, our experimental methods cannot give its exact Tk. […]

[6] = cited from earlier work; for CMC / γcmc: Wilhelmy plate method at 25 °C
[7] = cited from earlier work

| Structure (SMILES) | solubility ([1]; water, water, at RT) [mM] | CMC [2] [mM] | C20 ([3]; T = 25 °C) [mM] | pC20 ([3]; T = 25 °C) | ΔGads ([3]; T = 25 °C) [kcal/mol] | ΔGmic ([3]; T = 25 °C) [kcal/mol] | CMC ([3]; T = 25 °C (T > Tk)) | γcmc ([3]; T = 25 °C (T > Tk)) [mN/m] | Amin ([3]; T = 25 °C) [Å^2/molecule] | precipitation when cooling the previously heated solution [5] | solubility ([1]; water, water, at T > Tk) [mM] | CMC [6] [mM] | γcmc [6] [mN/m] | further results |
| --- | --- | --- | --- | --- | --- | --- | --- | --- | --- | --- | --- | --- | --- | --- |
| CCCCCCCCO[C@H]1O[C@H](CO)[C@H](O)[C@H](O)[C@H]1O [Molecule C8αGal, Octyl α-D-galactopyranoside, reference compound] | > 100 | 30.2 ± 0.4 | 3.8 | 2.4 | -6.4 | -3.6 | 51.7 mM and 51.7 ± 1.5 mM | 29.5 ± 0.2 | 45.8 ± 0.9 | – | – | – | – | Tk (Krafft temperature) [4]: <4 °C |
| CCCCCCCCO[C@H]1O[C@H](CO)[C@@H](O)[C@H](O)[C@H]1O [Molecule C8αGlc, Octyl α-D-glucopyranoside, reference compound] | – | – | – | – | – | – | – | – | – | within an hour | > 100 | 12 | 30.5 | Solubility Limit (S/mM) ([1]; water, at RT): insoluble; C20 ([3]; T = 50 °C): 2.8 mM; pC20 ([3]; T = 50 °C): 2.6; ΔGads ([3]; T = 50 °C): -7.0 kcal/mol; ΔGmic ([3]; T = 50 °C): -4.7 kcal/mol; CMC ([3]; T = 50 °C (T > Tk)): 15.5 mM and 15.5 ± 0.5 mM; γcmc ([3]; T = 50 °C (T > Tk)): 30.7 mN/m and 30.7 ± 0.3 mN/m; Amin ([3]; T = 50 °C): 43 ± 1.8 Å^2/molecule |
| CCCCCCCCO[C@@H]1O[C@H](CO)[C@H](O)[C@H](O)[C@H]1O [Molecule C8βGal, octyl β-D-galactopyranoside, reference compound] | 10 to 20 (≈ 2.92 to 5.85 mg/mL) | 31.7 ± 0.7 | – | – | – | – | – | – | – | no change was observed over one month | > 100 | 16 | 30.5 | aspect of solution ([1]; 20 mM in water at room temperature): nearly transparent; C20 ([3]; T = 40 °C): 3.2 mM; pC20 ([3]; T = 40 °C): 2.5; ΔGads ([3]; T = 40 °C): -7.1 kcal/mol; ΔGmic ([3]; T = 40 °C): -4.4 kcal/mol; CMC ([3]; T = 40 °C (T > Tk)): 20 mM and 20 ± 1 mM; γcmc ([3]; T = 40 °C (T > Tk)): 28.5 mN/m and 28.5 ± 0.5 mN/m; Amin ([3]; T = 40 °C): 46.3 ± 1.7 Å^2/molecule; Tk ([7]; derived from the phase diagram of Sakya et al.): 42 °C |
| CCCCCCCCO[C@@H]1O[C@H](CO)[C@@H](O)[C@H](O)[C@H]1O [Molecule C8βGlc, octyl β-D-glucopyranoside, reference compound] | > 100 | – | 2.7 | 2.6 | -6.4 | -4.1 | 21.2 mM and 21.2 ± 0.8 mM | 31.0 ± 0.15 | 38.5 ± 1.9 | – | – | – | – | Amin ([6]; ref 23): 38 Å^2/molecule; Amin ([6]; ref 46): 42 Å^2/molecule; solubility relative to octyl-α-D-glucoside (C8αGlc) ([7]; ref 25): about seven times larger |
